From patent publication US6969590B2, “Use of a polypeptide for treatment of pruritus in animals” (Zengen, Inc., priority 2001, dated 2005)

Columns and labels:
[1] = tested on: inflammation induced in the ear by picryl chloride; test: Picryl chloride-induced ear swelling; assay type: in vivo, BALB/C mice; conditions: for overall effect on ear inflammation (ANOVA): 10-80 μg IP, 3 and 6 h
Protocol: Female BALB/C mice (Simmons Laboratories), 7 weeks old, were housed at 23-25° C. in groups of no more than 5 per cage [28 cm (L)×18 cm (W)×13 cm (H)]. They were allowed to acclimatize to standard lighting and temperature conditions for at least 1 week, with food and water available ad lib, before the experiment began. Five to ten animals were randomly assigned to each treatment group each test day, and all experiments were repeated at least twice to confirm reproducibility. To reduce error due to slight differences in responses to the irritant of animals from different shipments, tests of each agent were performed as separate experiments in which experimental and control animals were drawn from the same shipment.
In the experiments each animal was anesthetized with 1 mg of pentobarbital sodium solution (50 mg/kg, Nembutal, Abbott Laboratories, Abbott park, Ill.). Baseline ear thickness was measured for both ears with a spring-loaded micrometer (Swiss Precision Instruments, Los Angeles, Calif.). Ear thickness was expressed in units of 10^−3 cm; the average thickness of unstimulated ears was approximately 25-30×10^−3 cm. After baseline measurements were taken, one of six solutions was injected IP. Control animals received 0.2 ml of sterile saline, and experimental animals received Ac-α-MSH (11-13)-NH2, i.e., Ac-Lys-Pro-Val-NH2), Ac[D-Lys^11] α-MSH (11-13)-NH2, Ac[D-Pro^12] α-MSH (11-13)-NH2, Ac[D-Val^13] α-MSH (11-13)-NH2 or Ac-[D-Lys^11, D-Val^13] α-MSH (11-13)-NH2 in the same volume of saline. […] The doses of the tripeptides were 10 μg ([…]), 20 μg ([…]), 40 μg (1.04×10^−7 M), and 80 μg (2.08×10^−7 M). Immediately after saline or α-MSH injection, a micropipette was used to coat both sides of each ear with 10 μl (40 μl per mouse) of a 0.5% picryl chloride (Polysciences, Warrington, Pa.) solution in acetone.
Ear thickness was remeasured 3 and 6 h after picryl chloride application. Swelling was determined by subtracting baseline thickness from the measurements for each ear at 3 and 6 h. The differences for both ears were then averaged for the final analysis.
Repeated-measure ANOVA techniques were used to determine if there was an overall difference among group data for each peptide tested in separate experiments. In those cases in which the ANOVA yielded significant results, Dunnett's test was then used to compare the effects of peptide doses with control (saline) data for each of the two time periods, 3 and 6 h.

[2] = tested on: edema caused by intradermal injection of human recombinant IL-1β in the mouse ear; test: Ear edema by intradermal recombinant human IL-1β; assay type: in vivo, BALB/c mice; conditions: for effect of antagonist on anti-inflammatory effect of centrally administered α-MSH (1-13): antagonist administered intraperitoneally
Protocol: Female BALB/c mice (Simonsen Laboratories, Gilroy, Calif.), 7-8 weeks old, were housed at 23-25° C. in groups not exceeding five animals per cage [28 cm (L)×18 cm (W)×13 cm (H)]. Before the experiments they were acclimatized for not less than 1 week before experimentation to standard lighting and temperature conditions with food and water freely available.
Mice were anesthetized with 10% pentobarbital sodium solution (1 mg/mouse, 50 mg/ml, Nembutal sodium solution; Abbott Laboratories, North Chicago, Ill.). Baseline ear thickness measurements were taken with a spring-loaded micrometer (Swiss Precision Instruments, Los Angeles, Calif.). Ear thickness was expressed in cubic centimeters and was measured at least twice at each time point. The average thickness of unstimulated ears was […]. Inflammation was induced by intradermal injection of 20 μl of recombinant human IL-1β (1500 U; Genzyme, Cambridge, Mass.) in one ear of each mouse using a 28 gauge needle (Hiltz et al., 1992). Measures of ear thickness were repeated 4 and 6 hr later, while the mice were under sodium pentobarbital anesthesia. Edema was assessed by subtracting baseline measures from 4 and 6 hr readings for each animal. α-MSH (11-13) (1663.9 gm/mol; Peninsula Laboratories, Belmont, Calif.) or α-MSH (11-13) (383.48 gm/mol; Peninsula Laboratories) dissolved in saline was injected intracerebroventricularly (20 μl) using procedures described previously (Lipton et al., 1991; Lipton and Catania, 1993).
Several agents were administered at the time of ear challenge to pharmacologically block certain receptors: atropine (Sigma Chemical Co.; 150 μg i.p.), a muscarinic receptor blocker that acts on autonomic end-organ receptors, was chosen because of links between inflammation and modulation of pain and the finding that muscarinic antagonists increase pain threshold (Hartvig et al., 1989); phentolamine (Sigma; 150 μg i.p.) an agent that competes for occupancy of α-adrenergic receptors; propranolol (Sigma; 150 μg, i.p.; 30 μg, i.c.v.), a nonspecific competitive antagonist for β-adrenergic receptors.
(§1) Because of the size of the experiments and the requirement for several shipments of animals over time, several experiments were performed, each with complete treatment and control groups drawn from the same shipment of mice. Omnibus analysis of variance techniques (Dynastat, Washington, D.C.) were used to test overall differences among group means. Tukey's protected t test was used to compare individual means. Probability values of <0.05 were considered significant.

C. albicans [3] = test: C. albicans colony forming units (candidacidal activity); assay type: cell-based; conditions: for relative potency in reducing C. albicans viability: 10^−4M melanocortin peptides; for reduction of C. albicans CFU at higher concentrations: up to 10^−4M
Protocol: C. albicans (1×10^6/ml in HBSS) was incubated in the presence or absence or α-MSH (1-13) or α-MSH (11-13) at concentrations in the range of 10^−15 M to 10^−6 M for 2 hours at 37° C. Cells were then washed in cold distilled water and diluted with HBSS to a concentration of 100 organisms/ml. One-ml aliquots were dispensed on blood agar plates and incubated for 48 hours at 37° C. Organism viability was estimated from the number of colonies formed. In subsequent experiments using familiar procedures we compared activity of α-MSH (4-10), α-MSH (6-13), α-MSH (11-13), ACTH (1-39), (18-39) and fluconazole, the latter an established antifungal agent. Melanocortin peptides and fluconazole were tested in concentrations of 10^−6 M to 10^−4 M. There were at least six replicates for each concentration of peptide.

[4] = tested on: inflammation induced in the hind paw; test: Kappa carrageenan-induced hind paw inflammation, spinal cord intact or transected; assay type: in vivo, BALB/c mice; conditions: 2.5 mg/mouse IP, mice with spinal transection, 4.5 h after carrageenan
Protocol: Because surgical dissection of trigeminal structures that innervate the ear of the mouse is very difficult, tests to learn whether descending neural pathways are essential to the anti-inflammatory activity of centrally administered α-MSH peptides were performed in mice with inflammation induced in a hind paw. In these experiments, each animal was anesthetized with pentobarbital sodium solution as above. Baseline footpad thickness of both hind paws was measured with a spring-loaded micrometer (Swiss Precision Instruments, Los Angeles, Calif.). Paw thickness was expressed in units of 10^−3 cm; average thickness of unstimulated paws was 171.5×10^−3 cm across shipments of animals. Kappa carrageenan (Sigma) dissolved in saline (0.05%, 20 μl) was injected (28 gauge allergy test syringe) into one footpad, and saline (20 μl) was injected into the other. For the analyses, the increase in thickness of the control saline-injected paw of each animal was subtracted from that of the carrageenan-injected paw, to eliminate the influence of mechanical injury and volume of the injected fluid. To be certain that mice with severed spinal cords can react to anti-inflammatory agents, prednisolone (2.5 mg/mouse (IP injection)) was administered to 10 mice with spinal transection and inflammation induced by carrageenan. Treatment with the locally acting steroid reduced swelling up to 29% (average, relative to saline controls) at 4.5 h. after carrageenan.
However, a standardized crushing of lumbar vertebrae with a hemostat was effective in severing the cord; no deaths were caused by this treatment. […] The experiments were limited to 4.5 h to reduce problems of bowel and bladder dysfunction. Immediately after the 4.5 h measurements all mice were killed with an overdose of sodium pentobarbital.
as §1

C. albicans [5] = test: Horse serum-induced germ tube formation of C. albicans; assay type: cell-based; conditions: 10^−6M, 60 minutes at 37° C.
Protocol: C. albicans from stationary phase cultures were washed twice with distilled water and suspended in HBSS to a final concentration of 2×10^6/ml. Hyphal growth was induced by addition of 10% inactivated horse serum (GIBCO/BRL, Great Britain) to yeast incubated for 45 minutes at 37° C. with continuous shaking. Horse serum was removed by washing cells twice with HBSS and incubation was continued for 60 minutes at 37° C. in the presence of α-MSH (1-13), α-MSH (6-13) or α-MSH (11-13) at a concentration of 10^−6M with continuous shaking. The percentage of filamentous cells was evaluated under a light microscope with the aid of hemocytometer. Experiments were run in triplicate and at least 200 cells were scored. Photomicrographs were taken with an MC100 camera attached to an Axioskop Zeiss microscope.

Ac-[D-Lys^11, D-Val^13] α-MSH (11-13)-NH2 [Ac-[D-Lys^11, D-Val^13]α-MSH(11-13)-NH2]
% Inhibition of swelling ([1]; 10 μg IP, 3 h): 22% | % Inhibition of swelling ([1]; 10 μg IP, 6 h): 22% | % Inhibition of swelling ([1]; 20 μg IP, 3 h): 55% | % Inhibition of swelling ([1]; 20 μg IP, 6 h): 46% | % Inhibition of swelling ([1]; 40 μg IP, 3 h): 42% | % Inhibition of swelling ([1]; 40 μg IP, 6 h): 41% | % Inhibition of swelling ([1]; 80 μg IP, 3 h): 40% | % Inhibition of swelling ([1]; 80 μg IP, 6 h): 44% | overall effect on ear inflammation (ANOVA) [1]: significant overall reduction in inflammation

Ac-[D-Pro^12]α-MSH (11-13)-NH2
% Inhibition of swelling ([1]; 10 μg IP, 3 h): 4% | % Inhibition of swelling ([1]; 10 μg IP, 6 h): 8% | % Inhibition of swelling ([1]; 20 μg IP, 3 h): 11% | % Inhibition of swelling ([1]; 20 μg IP, 6 h): 5% | % Inhibition of swelling ([1]; 40 μg IP, 3 h): 10% | % Inhibition of swelling ([1]; 40 μg IP, 6 h): 8% | % Inhibition of swelling ([1]; 80 μg IP, 3 h): 8% | % Inhibition of swelling ([1]; 80 μg IP, 6 h): 6% | overall effect on ear inflammation (ANOVA) [1]: no significant effect on inflammation

CN1[C@@H]2CC[C@H]1C[C@@H](OC(=O)C(CO)c1ccccc1)C2 (some centres unmarked) [atropine]
effect of antagonist on anti-inflammatory effect of centrally administered α-MSH (1-13) [2]: did not alter

COc1ccc(OC)c(C(O)C(C)NC(C)(C)C)c1 (centres unmarked) [butoxamine]
effect of antagonist on anti-inflammatory effect of centrally administered α-MSH (1-13) [2]: significantly reduced

Ac[D-Val^13] α-MSH (11-13)-NH2
% Inhibition of swelling ([1]; 10 μg IP, 3 h): 24% | % Inhibition of swelling ([1]; 10 μg IP, 6 h): 23% | % Inhibition of swelling ([1]; 20 μg IP, 3 h): 48% | % Inhibition of swelling ([1]; 20 μg IP, 6 h): 54% | % Inhibition of swelling ([1]; 40 μg IP, 3 h): 39% | % Inhibition of swelling ([1]; 40 μg IP, 6 h): 45% | % Inhibition of swelling ([1]; 80 μg IP, 3 h): 41% | % Inhibition of swelling ([1]; 80 μg IP, 6 h): 29% | overall effect on ear inflammation (ANOVA) [1]: marked inhibitory influence

Cc1ccc(N(CC2=NCCN2)c2cccc(O)c2)cc1 [phentolamine]
effect of antagonist on anti-inflammatory effect of centrally administered α-MSH (1-13) [2]: did not alter

ACTH fragment (18-39): ACTH fragment (18-39) (RPVKVYPNGAEDESAEAFPLEF; Corticotropin; UniProt P01189 155-176, looked up, fragment) [reference compound]
relative potency in reducing C. albicans viability (C. albicans [3]): did not reduce C. albicans viability | reduction of C. albicans CFU at higher concentrations (C. albicans [3]): ineffective

CC(C)NCC(O)COc1cccc2ccccc12 (centres unmarked) [propranolol]
effect of antagonist on anti-inflammatory effect of centrally administered α-MSH (1-13) [2]: inhibited | effect of antagonist on anti-inflammatory influence of α-MSH (1-13) ([2]; antagonist injected centrally): little effect

MEHFRWG [α-MSH (4-10)]
inhibition of CFU (C. albicans [3]; 10^−4M peptide as printed): approximately 50%

ACTH (1-39): adrenocortitrophic hormone peptide (1-39) (SYSMEHFRWGKPVGKKRRPVKVYPNGAEDESAEAFPLEF; Corticotropin; UniProt P01189 138-176, looked up) [reference compound]
relative potency in reducing C. albicans viability (C. albicans [3]): did not reduce C. albicans viability | reduction of C. albicans CFU at higher concentrations (C. albicans [3]): ineffective

C[C@]12C=CC(=O)C=C1CC[C@@H]1[C@@H]2[C@@H](O)C[C@@]2(C)[C@H]1CC[C@]2(O)C(=O)CO [prednisolone, reference compound]
reduction of swelling relative to saline controls (average) [4]: up to 29%

CC(C)NCC(O)COc1ccc(CC(N)=O)cc1 (centres unmarked) [atenolol]
effect of antagonist on anti-inflammatory effect of centrally administered α-MSH (1-13) [2]: little inhibition

HFRWGKPV (Designed polypeptide with anti-inflammatory, anti-bacterial, anti-fungal and antipyretic properties.) [α-MSH (6-13)]
relative potency in reducing C. albicans viability (C. albicans [3]): the most effective | reduction in the number of filamentous cells (inhibition of germination) (C. albicans [5]): approximately 50%
